Target: Glycogen synthase kinase 3 beta (Sus scrofa, UniProt B2LUN4)
Test: Inhibition of porcine brain GSK3beta using YRRAAVPPSPSLSRHSSPHQSpEDEEE as substrate

Glycogen synthase kinase 3 beta, sequence (B2LUN4 whole entry): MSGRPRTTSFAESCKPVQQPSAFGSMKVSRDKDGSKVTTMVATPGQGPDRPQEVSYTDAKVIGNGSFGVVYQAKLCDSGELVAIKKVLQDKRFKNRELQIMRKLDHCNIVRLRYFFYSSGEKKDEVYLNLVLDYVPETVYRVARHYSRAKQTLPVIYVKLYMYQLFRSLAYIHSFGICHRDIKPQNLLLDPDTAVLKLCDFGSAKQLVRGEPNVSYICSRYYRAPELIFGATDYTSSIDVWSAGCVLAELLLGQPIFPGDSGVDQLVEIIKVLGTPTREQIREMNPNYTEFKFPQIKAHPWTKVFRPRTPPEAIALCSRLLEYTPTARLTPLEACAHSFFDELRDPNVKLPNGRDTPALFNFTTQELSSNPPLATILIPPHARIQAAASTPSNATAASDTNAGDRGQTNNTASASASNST

`Cn1c(O)c(-c2[nH]c3ccccc3c2N=O)c2cccc(Br)c21` showed an IC50 greater than 10 µM.

Source: ChEMBL document CHEMBL2321863, “Novel Inverse Binding Mode of Indirubin Derivatives Yields Improved Selectivity for DYRK Kinases” (ACS Med Chem Lett, 2013)
